Reference: ChEMBL document CHEMBL3885861, “Open TG-GATES”

Species: Rattus norvegicus
Assay: Open TG-GATES - Regimen: Single
Assay type: toxicity, organism-based, Sprague-Dawley
Design: regimen Single, gender Male, age 6 weeks
Details: in vivo, po, 0 mg/kg, route gavage, dose level Control; for APTT / Bas / Eos / Fbg / Hb / Ht / Lym / MCH / MCHC / MCV / Mono / Neu / PT / Plat / RBC / Ret / WBC: tissue Blood; for KIDNEY_L / KIDNEY_R / KIDNEY_TOTAL: tissue Kidney; for LIVER: tissue Liver; for A/G / ALP / ALT / AST / BUN / CRE / Ca / Cl / DBIL / GLC / IP / K / LDH / Na / PL / RALB / TBIL / TC / TG / TP / gamma-GTP: tissue Plasma

SMILES: CCOC(=O)CCC(=O)O[C@H]1[C@H](O[C@@H]2[C@@H](C)[C@H](O[C@H]3C[C@@](C)(OC)[C@@H](O)[C@H](C)O3)[C@@H](C)C(=O)O[C@H](CC)[C@@](C)(O)[C@H](O)[C@@H](C)C(=O)[C@H](C)C[C@@]2(C)O)O[C@H](C)C[C@@H]1N(C)C [ERYTHROMYCIN ETHYLSUCCINATE]
- TERMINAL_BW (3 h): 215 g
- APTT (3 h): 23.2 s
- Bas (3 h): 0%
- Eos (3 h): 1%
- Fbg (3 h): 292.2 mg/dL
- Hb (3 h): 13.2 g/dL
- Ht (3 h): 40.2%
- Lym (3 h): 81.2%
- MCH (3 h): 20.8 pg
- MCHC (3 h): 32.9%
- MCV (3 h): 63.2 fL
- Mono (3 h): 2%
- Neu (3 h): 15%
- PT (3 h): 16.3 s
- Plat (3 h): 112.7 x10_4/uL
- RBC (3 h): 635.6 x10_4/ul
- Ret (3 h): 7.9%
- WBC (3 h): 75.2 x10_2/uL
- KIDNEY_L (3 h): 0.9 g
- KIDNEY_R (3 h): 0.9 g
- KIDNEY_TOTAL (3 h): 1.8 g
- LIVER (3 h): 9.7 g
- A/G (3 h): 1.2
- ALP (3 h): 1728.4 IU/L
- ALT (3 h): 40.6 IU/L
- AST (3 h): 76.6 IU/L
- BUN (3 h): 14.6 mg/dL
- CRE (3 h): 0.2 mg/dL
- Ca (3 h): 10.4 mg/dL
- Cl (3 h): 103.2 meq/L
- DBIL (3 h): 0 mg/dL
- GLC (3 h): 188.2 mg/dL
- IP (3 h): 8.3 mg/dL
- K (3 h): 3.9 meq/L
- LDH (3 h): 159.2 IU/L
- Na (3 h): 139.4 meq/L
- PL (3 h): 140 mg/dL
- RALB (3 h): 2.9 g/dL
- TBIL (3 h): 0.012 mg/dL
- TC (3 h): 84.8 mg/dL
- TG (3 h): 55.4 mg/dL
- TP (3 h): 5.4 g/dL
- gamma-GTP (3 h): 1 IU/L
- TERMINAL_BW (6 h): 212.6 g
- APTT (6 h): 22.9 s
- Bas (6 h): 0%
- Eos (6 h): 0.6%
- Fbg (6 h): 321.8 mg/dL
- Hb (6 h): 13.8 g/dL
- Ht (6 h): 42.2%
- Lym (6 h): 75.8%
- MCH (6 h): 21.3 pg
- MCHC (6 h): 32.8%
- MCV (6 h): 65 fL
- Mono (6 h): 2.4%
- Neu (6 h): 20.2%
- PT (6 h): 15.8 s
- Plat (6 h): 121 x10_4/uL
- RBC (6 h): 651 x10_4/ul
- Ret (6 h): 7.6%
- WBC (6 h): 111.5 x10_2/uL
- KIDNEY_L (6 h): 0.9 g
- KIDNEY_R (6 h): 0.9 g
- KIDNEY_TOTAL (6 h): 1.9 g
- LIVER (6 h): 9.3 g
- A/G (6 h): 1.2
- ALP (6 h): 1491 IU/L
- ALT (6 h): 37.4 IU/L
- AST (6 h): 70.6 IU/L
- BUN (6 h): 9.6 mg/dL
- CRE (6 h): 0.2 mg/dL
- Ca (6 h): 10.3 mg/dL
- Cl (6 h): 103.4 meq/L
- DBIL (6 h): 0.002 mg/dL
- GLC (6 h): 190.6 mg/dL
- IP (6 h): 8.9 mg/dL
- K (6 h): 4.1 meq/L
- LDH (6 h): 138 IU/L
- Na (6 h): 139.6 meq/L
- PL (6 h): 139.8 mg/dL
- RALB (6 h): 3 g/dL
- TBIL (6 h): 0.02 mg/dL
- TC (6 h): 78.8 mg/dL
- TG (6 h): 67.6 mg/dL
- TP (6 h): 5.5 g/dL
- gamma-GTP (6 h): 1.2 IU/L
- TERMINAL_BW (9 h): 212 g
- APTT (9 h): 22.4 s
- Bas (9 h): 0%
- Eos (9 h): 0.6%
- Fbg (9 h): 319.6 mg/dL
- Hb (9 h): 13 g/dL
- Ht (9 h): 39.6%
- Lym (9 h): 81.2%
- MCH (9 h): 20.4 pg
- MCHC (9 h): 32.8%
- MCV (9 h): 62.2 fL
- Mono (9 h): 1.8%
- Neu (9 h): 15.4%
- PT (9 h): 15.9 s
- Plat (9 h): 118.3 x10_4/uL
- RBC (9 h): 636.4 x10_4/ul
- Ret (9 h): 7.4%
- WBC (9 h): 106.6 x10_2/uL
- KIDNEY_L (9 h): 1 g
- KIDNEY_R (9 h): 1 g
- KIDNEY_TOTAL (9 h): 1.9 g
- LIVER (9 h): 9 g
- A/G (9 h): 1.2
- ALP (9 h): 1414 IU/L
- ALT (9 h): 38.4 IU/L
- AST (9 h): 69.8 IU/L
- BUN (9 h): 10.8 mg/dL
- CRE (9 h): 0.2 mg/dL
- Ca (9 h): 10.5 mg/dL
- Cl (9 h): 103.6 meq/L
- DBIL (9 h): 0 mg/dL
- GLC (9 h): 190.8 mg/dL
- IP (9 h): 9.1 mg/dL
- K (9 h): 4.2 meq/L
- LDH (9 h): 161.4 IU/L
- Na (9 h): 139.2 meq/L
- PL (9 h): 124.4 mg/dL
- RALB (9 h): 2.9 g/dL
- TBIL (9 h): 0.016 mg/dL
- TC (9 h): 71.6 mg/dL
- TG (9 h): 51.6 mg/dL
- TP (9 h): 5.4 g/dL
- gamma-GTP (9 h): 1 IU/L
- TERMINAL_BW (24 h): 227 g
- APTT (24 h): 20.9 s
- Bas (24 h): 0%
- Eos (24 h): 1%
- Fbg (24 h): 327.8 mg/dL
- Hb (24 h): 13.5 g/dL
- Ht (24 h): 40.3%
- Lym (24 h): 83.8%
- MCH (24 h): 21.4 pg
- MCHC (24 h): 33.4%
- MCV (24 h): 64.2 fL
- Mono (24 h): 3.4%
- Neu (24 h): 11%
- PT (24 h): 15.9 s
- Plat (24 h): 111.9 x10_4/uL
- RBC (24 h): 629.4 x10_4/ul
- Ret (24 h): 7.8%
- WBC (24 h): 111 x10_2/uL
- KIDNEY_L (24 h): 1 g
- KIDNEY_R (24 h): 1 g
- KIDNEY_TOTAL (24 h): 2 g
- LIVER (24 h): 10.5 g
- A/G (24 h): 1.2
- ALP (24 h): 1574.2 IU/L
- ALT (24 h): 37.6 IU/L
- AST (24 h): 66.4 IU/L
- BUN (24 h): 17.8 mg/dL
- CRE (24 h): 0.1 mg/dL
- Ca (24 h): 10.5 mg/dL
- Cl (24 h): 106.6 meq/L
- DBIL (24 h): 0 mg/dL
- GLC (24 h): 211.4 mg/dL
- IP (24 h): 8.5 mg/dL
- K (24 h): 4.3 meq/L
- LDH (24 h): 191.4 IU/L
- Na (24 h): 143 meq/L
- PL (24 h): 156.2 mg/dL
- RALB (24 h): 3 g/dL
- TBIL (24 h): 0.024 mg/dL
- TC (24 h): 81.4 mg/dL
- TG (24 h): 119.4 mg/dL
- TP (24 h): 5.4 g/dL
- gamma-GTP (24 h): 1.2 IU/L
